Measured values taken from patent US11434242B2, “Dopamine-b-hydroxylase inhibitors” (BIAL-PORTELA & Cª, S.A., priority 2017, dated 2022).

Biological target: T1, Dopamine beta hydroxylase (Homo sapiens, UniProt P09172)
T1 construct: 125 μl of plasma; tissue Instituto Português do Sangue Transplantação; host or cells: human plasma from healthy donors
T1 sequence (P09172 40-617 limits assumed): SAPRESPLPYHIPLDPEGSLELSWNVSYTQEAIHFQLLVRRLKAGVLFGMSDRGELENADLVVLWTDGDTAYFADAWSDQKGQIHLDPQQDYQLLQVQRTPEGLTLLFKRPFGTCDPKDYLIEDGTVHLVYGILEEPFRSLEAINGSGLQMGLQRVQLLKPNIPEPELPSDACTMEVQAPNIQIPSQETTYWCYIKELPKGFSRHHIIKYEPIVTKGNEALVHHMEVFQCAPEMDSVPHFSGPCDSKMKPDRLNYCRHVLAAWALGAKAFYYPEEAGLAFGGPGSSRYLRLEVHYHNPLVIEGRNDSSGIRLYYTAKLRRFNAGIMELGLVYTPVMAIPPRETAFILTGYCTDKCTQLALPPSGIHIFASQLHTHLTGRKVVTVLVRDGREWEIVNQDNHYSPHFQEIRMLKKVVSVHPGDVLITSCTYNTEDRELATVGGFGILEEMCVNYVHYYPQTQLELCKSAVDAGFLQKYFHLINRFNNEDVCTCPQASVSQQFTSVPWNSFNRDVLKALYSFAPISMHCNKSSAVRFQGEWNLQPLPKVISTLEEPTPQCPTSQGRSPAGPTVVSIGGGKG
Test: Dopamine beta hydroxylase activity in human plasma
Assay type: biochemical
Conditions: for Plasma (0.01 μM), activity in % of control: inhibitor 0.01 μM; for Plasma (0.1 μM), activity in % of control: inhibitor 0.1 μM; for Plasma (1 μM), activity in % of control: inhibitor 1 μM
Protocol: Furthermore, the ability of a compound to inhibit DβH activity may be assessed in human plasma using the following assay. […]. Dopamine beta hydroxylase activity in human plasma was measured by the method of Nagatsu and Udenfriend (Nagatsu, T. and Udenfriend, S. “Photometric assay of dopamine-μ-hydroxylase activity in human blood.” Clin. Chem. 18(9) 980-983, 1972) with minor modifications. Catalase, N-ethylmaleimide, tyramine, disodium fumarate, pargyline, sodium acetate, ascorbic acid, copper sulfate and octopamine were obtained from Sigma Chemical Co., St. Louis, Mo. 63178. Human plasma samples were obtained from healthy donors (Instituto Português do Sangue Transplantação, Centro Sangue Transplantação, Porto, Portugal). From date of collection, plasma was stored at −80° C. until use. Test compounds were initially prepared in dimethyl sulfoxide at a concentration of 10 mM and diluted in dimethyl sulfoxide to the required concentrations. Test compounds were further diluted in ultrapure water to a concentration 20-fold to that of the final concentration to be tested. Final concentrations of test compounds were 10, 100 and 1000 nM. The various reagents used to make up the incubation buffer were premixed and consisted of the following components: sodium acetate buffer (1 M, pH 5.0, 18 ml), sodium fumarate (0.2 M, 4.5 ml), ascorbic acid (0.2 M, 4.5 ml, freshly prepared), pargyline (20 mM, freshly prepared, 4.5 ml), N-ethylmaleimide (0.2 M, 4.5 ml), catalase (10 000 U/ml, 9 ml), copper sulfate (20 μM, 4.5 ml) and 4.5 ultrapure water. The standard incubation mixture (total volume, 950 μl) contained: 50 μL of compound or vehicle (dimethyl sulfoxide 2%); 700 μL of incubation buffer; 125 μl of plasma (or saline for blank reaction or standard curve); 75 μl of saline. The reaction mixture was placed in water bath, shaking at 37° C. and pre-incubated for 10 minutes. Tyramine (0.5 M) was added and incubation proceeded for 45 minutes. The reaction contents were exposed to air. A sample of enzyme preparation (with 125 μl of plasma) that had been added perchloric acid 2 M at the end of the pre-incubation period was used as blank. A blank for each of the tested compounds was used. For octopamine standard curve, perchloric acid 2 M was replaced by increasing concentrations of octopamine prepared in perchloric acid 2 M (0.5, 1, 2.5, 5, 7.5, 10, 15, 20 μg/ml, final concentration). The incubation was stopped by adding 200 μl of 2 M molar perchloric acid, and the mixture was centrifuged at 9000 g for 5 min. The supernatant fluid (800 μL) was transferred to a column (SPE cartridge ISOLUTE SCX-3, 100 mg) and centrifuged at 150 g for 2 min. The column was washed two more times with 0.5 ml of ultrapure water by centrifuging at 150 g for 2 min. The adsorbed octopamine was eluted twice with 0.3 ml of 4 M ammonium hydroxide by centrifuging at 150 g for 2 min. Octopamine in the eluate was then converted to p-hydroxybenzaldehyde by adding 200 μl of sodium periodate (2%) and incubating for 6 min. Excess periodate was than reduced by adding 200 μl of sodium metabisulfite (10%). Absorbance was measured at […] in a 96-well plate by use of a SpectraMAX plus 384 (Molecular Devices) with software SOFTmax® PRO Software 5.3 spectrophotometer. Absorbance was linear with octopamine concentration from 0.5 to 20 μg/ml. Dopamine beta hydroxylase activity is determined as nmol of octopamine formed/ml of plasma/hour and effect of compounds is presented as % control.
Results are reported in the table below as activity in % of control at the inhibitor concentration tested.

| Structure (SMILES) | Plasma (0.01 μM), activity in % of control | Plasma (0.1 μM), activity in % of control | Plasma (1 μM), activity in % of control |
| --- | --- | --- | --- |
| Cn1c(CC(=O)NCC2CCCO2)c2n(c1=S)C[C@@H](c1c(F)c(F)cc(F)c1F)C2 (stereo in doubt) [Example 387, 2-((R)-2-methyl-6-(2,3,5,6-tetrafluorophenyl)-3-thioxo-2,5,6,7-tetrahydro-3H-pyrrolo[1,2-c]imidazol-1-yl)-N—(((S)-tetrahydrofuran-2-yl)methyl)acetamide] | 92.9 % of control | 43.7 % of control |  |
| Cn1c(CC(=O)NCC2CCCO2)c2n(c1=S)C[C@@H](c1c(F)c(F)cc(F)c1F)C2 (stereo in doubt) [Example 391, 2-((R)-2-methyl-6-(2,3,5,6-tetrafluorophenyl)-3-thioxo-2,5,6,7-tetrahydro-3H-pyrrolo[1,2-c]imidazol-1-yl)-N—(((R)-tetrahydrofuran-2-yl)methyl)acetamide] | 83.8 % of control | 40.7 % of control |  |
| O=C(O)Cc1[nH]c(=S)n2c1C[C@@H](c1c(F)ccc(Br)c1F)C2 [Example 12, (S)-2-(6-(3-bromo-2,6-difluorophenyl)-3-thioxo-2,5,6,7-tetrahydro-3H-pyrrolo[1,2-c]imidazol-1-yl)acetic Acid] |  | 30.8 % of control | 3.3 % of control |
| O=C(O)Cc1[nH]c(=S)n2c1C[C@H](c1c(F)ccc(Br)c1F)C2 [Example 13, (R)-2-(6-(3-bromo-2,6-difluorophenyl)-3-thioxo-2,5,6,7-tetrahydro-3H-pyrrolo[1,2-c]imidazol-1-yl)acetic Acid] |  | 68.0 % of control | 13.9 % of control |
| O=C(O)Cc1[nH]c(=S)n2c1C[C@H](c1cc(F)ccc1F)C2 [Example 14, (R)-2-(6-(2,5-difluorophenyl)-3-thioxo-2,5,6,7-tetrahydro-3H-pyrrolo[1,2-c]imidazol-1-yl)acetic Acid] |  | 92.8 % of control | 45.6 % of control |
| O=C(O)Cc1[nH]c(=S)n2c1C[C@H](c1c(F)c(F)cc(F)c1F)C2 [Example 15, (R)-2-(6-(2,3,5,6-tetrafluorophenyl)-3-thioxo-2,5,6,7-tetrahydro-3H-pyrrolo[1,2-c]imidazol-1-yl)acetic Acid] |  | 66.0 % of control | 11.4 % of control |
| O=C(O)Cc1[nH]c(=S)n2c1C[C@@H](c1cc(Br)ccc1F)C2 [Example 16, (S)-2-(6-(5-bromo-2-fluorophenyl)-3-thioxo-2,5,6,7-tetrahydro-3H-pyrrolo[1,2-c]imidazol-1-yl)acetic Acid] |  | 72.9 % of control | 12.7 % of control |
| O=C(O)Cc1[nH]c(=S)n2c1C[C@H](c1cc(Cl)ccc1F)C2 [Example 17, (R)-2-(6-(5-chloro-2-fluorophenyl)-3-thioxo-2,5,6,7-tetrahydro-3H-pyrrolo[1,2-c]imidazol-1-yl)acetic Acid] |  | 79.0 % of control | 32.2 % of control |
| O=C(O)Cc1[nH]c(=S)n2c1C[C@H](c1c(F)cccc1F)C2 [Example 18, (R)-2-(6-(2,6-difluorophenyl)-3-thioxo-2,5,6,7-tetrahydro-3H-pyrrolo[1,2-c]imidazol-1-yl)acetic Acid] |  | 81.0 % of control | 19.8 % of control |
| CS(=O)(=O)NC(=O)Cc1[nH]c(=S)n2c1C[C@@H](c1c(F)ccc(Br)c1F)C2 [Example 20, (S)-2-(6-(3-bromo-2,6-difluorophenyl)-3-thioxo-2,5,6,7-tetrahydro-3H-pyrrolo[1,2-c]imidazol-1-yl)-N-(methylsulfonyl)acetamide] |  | 31.0 % of control | 2.6 % of control |
| CS(=O)(=O)NC(=O)Cc1[nH]c(=S)n2c1C[C@@H](c1cc(Br)ccc1F)C2 [Example 21, (S)-2-(6-(5-bromo-2-fluorophenyl)-3-thioxo-2,5,6,7-tetrahydro-3H-pyrrolo[1,2-c]imidazol-1-yl)-N-(methylsulfonyl)acetamide] |  | 69.2 % of control | 16.7 % of control |
| O=C(Cc1[nH]c(=S)n2c1C[C@H](c1c(F)ccc(Br)c1F)C2)NC1CCOC1=O (stereo partly drawn) [Example 22, 2-((R)-6-(3-bromo-2,6-difluorophenyl)-3-thioxo-2,5,6,7-tetrahydro-3H-pyrrolo[1,2-c]imidazol-1-yl)-N-(2-oxotetrahydrofuran-3-yl)acetamide] |  | 45.1 % of control | 4.4 % of control |
| CS(=O)(=O)NC(=O)Cc1[nH]c(=S)n2c1C[C@H](c1c(F)c(F)cc(F)c1F)C2 [Example 23, (R)—N-(methylsulfonyl)-2-(6-(2,3,5,6-tetrafluorophenyl)-3-thioxo-3,5,6,7-tetrahydro-2H-pyrrolo[1,2-c]imidazol-1-yl)acetamide] |  | 56.6 % of control | 8.8 % of control |
| CS(=O)(=O)NC(=O)Cc1[nH]c(=S)n2c1C[C@H](c1cc(F)ccc1F)C2 [Example 24, (R)-2-(6-(2,5-difluorophenyl)-3-thioxo-2,5,6,7-tetrahydro-3H-pyrrolo[1,2-c]imidazol-1-yl)-N-(methylsulfonyl)acetamide] |  | 100.2 % of control | 45.6 % of control |
| CCOC(=O)CNC(=O)Cc1[nH]c(=S)n2c1C[C@H](c1c(F)c(F)cc(F)c1F)C2 [Example 25, Ethyl (R)-(2-(6-(2,3,5,6-tetrafluorophenyl)-3-thioxo-2,5,6,7-tetrahydro-3H-pyrrolo[1,2-c]imidazol-1-yl)acetyl)glycinate] |  | 71.3 % of control | 17.6 % of control |
| C[C@H](NC(=O)Cc1[nH]c(=S)n2c1C[C@H](c1c(F)c(F)cc(F)c1F)C2)C(N)=O [Example 26, (S)-2-(2-((R)-6-(2,3,5,6-tetrafluorophenyl)-3-thioxo-2,5,6,7-tetrahydro-3H-pyrrolo[1,2-c]imidazol-1-yl)acetamido)propanamide] |  | 64.0 % of control | 18.2 % of control |
